Test results: paper PMC11089204 (Frontiers in Pharmacology, 2024)

What was measured:
[1] = test system: CYP2D6; assay: Influence of CYP2D6 genotype on psilocin plasma exposure in humans; assay type: in vivo; details: human, PM/IM/EM/UM genotypes, AUC z-scores
Procedure: Genomic DNA was extracted from whole blood using the QIAamp DNA Blood Mini Kit (Qiagen, Hombrechtikon, Switzerland) and an automated QIAcube system. SNP genotyping was performed using commercial TaqMan SNP genotyping assays (LuBio Science, Lucerne, Switzerland). We assayed the following SNPs and respective alleles: CYP2D6*3 (rs35742686, assay: C_32407232_50), CYP2D6*4 (rs3892097, assay: C_27102431_D0, and rs1065852, assay: C_11484460_40), CYP2D6*6 (rs5030655, assay: C_32407243_20), CYP2D6*9 (rs5030656, assay: C_32407229_60), CYP2D6*10 (rs1065852), CYP2D6*17 (rs28371706, assay: C_2222771_A0, and rs16947, assay: C_27102425_10), CYP2D6*29 (rs59421388, assay: C_3486113_20), and CYP2D6*41 (rs28371725, assay: C_34816116_20, and rs16947). CYP2D6 gene deletion (allele *5) and duplication/multiplication (allele *xN) were determined using a TaqMan Copy Number Assay (Hs04502391_cn). Activity scores for CYP2D6 were assigned according to established guidelines ([Gaedigk et al., 2008]; [Crews et al., 2012]; [Hicks et al., 2013]; [Hicks et al., 2015]; [Caudle et al., 2020]). The classification into different genotypes was as follows: poor metabolizer (PM, activity score = 0), intermediate metabolizer (IM, activity score = 0.5–1), extensive metabolizer (EM, activity score = 1.5–2), and ultra-rapid metabolizer (UM, activity score > 2).

[2] = target: T1, recombinant CYP2B6 (Homo sapiens, UniProt P20813); assay: Incubation with recombinant CYP2B6 enzymes; assay type: in vitro ADME; details: 1,000 nM psilocin, rec. CYP2B6
T1 construct: purchased Corning Life Sciences B.V
Procedure: Corning UltraPool human liver microsomes (HLM) 150 (20 mg/mL), human intestinal microsomes (HIM) pool (10 mg/mL) as well as recombinant human CYP enzymes (with P450 oxidoreductase, OR) including CYP1A2+OR (0.5 nmol), CYP2B6+OR (0.5 nmol), CYP2C8+OR (1.0 nmol), CYP2C9*1+OR (1 nmol), CYP2C19+OR (0.5 nmol), CYP2D6*1+OR (0.5 nmol), CYP2E1+OR + cytochrome b5 (1 nmol), CYP3A4+OR + cytochrome b5 (0.5 nmol), MAO-A (5 mg/mL), MAO-B (5 mg/mL), and UGT1A10 (5 mg/mL) were purchased from Corning Life Sciences B.V (Amsterdam, Netherlands). All microsomes and recombinant enzyme solutions were aliquoted and stored at −80 °C until further use.
The total volume of the reaction mixture was 500 μL. […] Samples were either directly analyzed by liquid chromatography tandem mass spectrometry (LC-MS/MS) or briefly stored at −20°C until analysis.

T1 sequence (P20813 whole entry): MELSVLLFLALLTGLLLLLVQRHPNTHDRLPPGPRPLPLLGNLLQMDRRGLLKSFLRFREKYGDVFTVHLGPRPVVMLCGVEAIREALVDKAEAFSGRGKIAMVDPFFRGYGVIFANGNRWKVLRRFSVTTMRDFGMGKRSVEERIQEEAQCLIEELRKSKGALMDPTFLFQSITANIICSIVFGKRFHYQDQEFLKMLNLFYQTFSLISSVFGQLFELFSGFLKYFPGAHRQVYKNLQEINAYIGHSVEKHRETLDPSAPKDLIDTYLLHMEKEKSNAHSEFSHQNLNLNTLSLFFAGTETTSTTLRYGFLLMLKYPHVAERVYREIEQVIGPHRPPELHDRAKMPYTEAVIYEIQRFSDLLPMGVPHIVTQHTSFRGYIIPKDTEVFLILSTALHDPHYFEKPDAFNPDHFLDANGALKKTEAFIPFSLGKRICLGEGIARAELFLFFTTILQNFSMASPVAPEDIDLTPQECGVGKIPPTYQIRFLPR

Question: With `CN(C)CCc1c[nH]c2cccc(O)c12` [psilocin, 4-hydroxy-N,N-dimethyltryptamine] as the molecule, how does the “effect of CYP2D6 genotype on plasma concentration of free psilocin” value [1] read?
Answer: did not alter

Question: And the metabolism of psilocin [2]?
Answer: did not metabolize
